Tests used:
[1] = Total plasma concentration in Wistar Han rat at 1 to 2 mg/kg, iv infused for 10 to 20 hrs by LC-MS/MS analysis; settings: in vivo
[2] = Drug concentration in total heart in Wistar Han rat at 1 to 2 mg/kg, iv infused for 10 to 20 hrs by LC-MS/MS analysis; settings: in vivo
[3] = Fraction unbound in Wistar Han rat heart at 2 uM incubated for 6 hrs by equilibrium dialysis method
[4] = Drug concentration in total white adipose tissue in Wistar Han rat at 1 to 2 mg/kg, iv infused for 10 to 20 hrs by LC-MS/MS analysis; settings: in vivo
[5] = Drug concentration in total skeletal muscle in Wistar Han rat at 1 to 2 mg/kg, iv infused for 10 to 20 hrs by LC-MS/MS analysis; settings: in vivo
[6] = Unbound tissue partition coefficient, ratio of drug level in liver to plasma in Wistar Han rat at 1 to 2 mg/kg, iv infused for 10 to 20 hrs by LC-MS/MS analysis; settings: liver/plasma
[7] = Fraction unbound in Wistar Han rat skeletal muscle at 2 uM incubated for 6 hrs by equilibrium dialysis method
[8] = Drug concentration in total liver in Wistar Han rat at 1 to 2 mg/kg, iv infused for 10 to 20 hrs by LC-MS/MS analysis; settings: in vivo
[9] = Fraction unbound in Wistar Han rat brain at 2 uM incubated for 6 hrs by equilibrium dialysis method
[10] = Apparent permeability of the compound across dog RRCK cells by MDCK-LE assay
[11] = Fraction unbound in Wistar Han rat plasma at 2 uM incubated for 6 hrs by equilibrium dialysis method
[12] = Unbound tissue partition coefficient, ratio of drug level in skeletal muscle to plasma in Wistar Han rat at 1 to 2 mg/kg, iv infused for 10 to 20 hrs by LC-MS/MS analysis; settings: skeletal muscle/plasma
[13] = Fraction unbound in Wistar Han rat white adipose tissue at 2 uM incubated for 6 hrs by equilibrium dialysis method
[14] = Unbound tissue partition coefficient, ratio of drug level in brain to plasma in Wistar Han rat at 1 to 2 mg/kg, iv infused for 10 to 20 hrs by LC-MS/MS analysis; settings: brain/plasma
[15] = Unbound tissue partition coefficient, ratio of drug level in adipose to plasma in Wistar Han rat at 1 to 2 mg/kg, iv infused for 10 to 20 hrs by LC-MS/MS analysis; settings: adipose/plasma
[16] = Unbound tissue partition coefficient, ratio of drug level in heart to plasma in Wistar Han rat at 1 to 2 mg/kg, iv infused for 10 to 20 hrs by LC-MS/MS analysis; settings: heart/plasma
[17] = Drug concentration in total brain in Wistar Han rat at 1 to 2 mg/kg, iv infused for 10 to 20 hrs by LC-MS/MS analysis; settings: in vivo
[18] = Fraction unbound in Wistar Han rat liver at 2 uM incubated for 6 hrs by equilibrium dialysis method

Row | SMILES | Cp [1] | Ct [2] | fraction unbound at 6 h, 2 µM [3] | Ct [4] | Ct [5] | Kp uu [6] | fraction unbound at 6 h, 2 µM [7] | Ct [8] | fraction unbound at 6 h, 2 µM [9] | Papp [10] | fraction unbound at 6 h, 2 µM [11] | Kp uu [12] | fraction unbound at 6 h, 2 µM [13] | Kp uu [14] | Kp uu [15] | Kp uu [16] | Ct [17] | fraction unbound at 6 h, 2 µM [18]
1 | Cc1c(C(=O)O)cnn1-c1nc(-c2cccc(C(F)(F)F)c2)cs1 | 93 ng/mL | 130 ng/mL | 0.00954 | 13 ng/mL | 29 ng/mL | 3.9 | 0.0139 | 520 ng/mL | 0.00498 | 38 ×10⁻⁶ cm/s | 0.00965 | 0.45 | 0.0597 | 0.12 | 0.86 | 1.4 | 22 ng/mL | 0.00676
2 | N#Cc1ccc(N2N=C(N3CCC(C(=O)N4CCC(O)CC4)CC3)C[C@H]2C2CCCC2)cc1Cl | 240 ng/mL | 550 ng/mL | 0.00283 | 120 ng/mL | 150 ng/mL | 4.3 | 0.00952 | 1000 ng/mL | 0.00431 | 20 ×10⁻⁶ cm/s | 0.00962 | 0.59 | 0.109 | 0.029 | 5.9 | 0.68 | 16 ng/mL | 0.00991
3 | O=C(NC(c1ccccc1)c1ccccc1)C1CC1 | 79 ng/mL | 230 ng/mL | 0.1 | 880 ng/mL | 40 ng/mL | 5.4 | 0.0833 | 230 ng/mL | 0.079 | 35 ×10⁻⁶ cm/s | 0.0667 | 0.68 | 0.0208 | 3.2 | 3.9 | 4.7 | 200 ng/mL | 0.12
4 | O=c1[nH]c(=S)n(CCO)c2cc[nH]c12 | 32 ng/mL | 45 ng/mL | 0.667 | 0.86 ng/mL | 38 ng/mL | 1.9 | 0.276 | 70 ng/mL | 0.347 | 1.7 ×10⁻⁶ cm/s | 0.817 | 0.41 | 1 | 0.048 | 0.027 | 1.1 | 3.7 ng/mL | 0.696
5 | Oc1noc2cc(Cl)c(Cl)cc12 | 500 ng/mL | 180 ng/mL | 0.13 | 29 ng/mL | 17 ng/mL | 0.22 | 0.153 | 4.7 ng/mL | 0.103 | 29 ×10⁻⁶ cm/s | 0.00445 | 1.2 | 0.714 | 1.1 | 9.7 | 10 | 24 ng/mL | 0.105

Results, then the molecule that gave them:

Row | Cp [1] | Ct [2] | fraction unbound at 6 h, 2 µM [3] | Ct [4] | Ct [5] | Kp uu [6] | fraction unbound at 6 h, 2 µM [7] | Ct [8] | fraction unbound at 6 h, 2 µM [9] | Papp [10] | fraction unbound at 6 h, 2 µM [11] | Kp uu [12] | fraction unbound at 6 h, 2 µM [13] | Kp uu [14] | Kp uu [15] | Kp uu [16] | Ct [17] | fraction unbound at 6 h, 2 µM [18] | SMILES
6 | 160 ng/mL | 190 ng/mL | 0.237 | 30 ng/mL | 160 ng/mL | 0.63 | 0.676 | 290 ng/mL | 0.239 | 0.27 ×10⁻⁶ cm/s | 0.686 | 0.99 | 0.541 | 0.19 | 0.14 | 0.39 | 87 ng/mL | 0.237 | CCCn1cnc(C[C@H](CCCN)C(=O)O)c1 [UK-396,082]
7 | 410 ng/mL | 200 ng/mL | 0.00722 | 18 ng/mL | 58 ng/mL | 13 | 0.00926 | 2400 ng/mL | 0.00714 | 8.5 ×10⁻⁶ cm/s | 0.00392 | 0.33 | 0.0593 | 0.026 | 0.69 | 0.91 | 5.8 ng/mL | 0.00845 | CCC[C@H](Oc1cc(C)c(-n2cc(C(F)(F)F)cn2)c(C)c1)c1ccc(C(=O)NCCC(=O)O)cc1 [PF-06291874]
